Results from the supplement of paper PMC10307832.

Tests used:
Assay in all cases: relative viability (nuclei count vs DMSO), 5 days (fraction); higher = more cells survive
[1] = compound: C[C@@H](N)c1ccc(C(=O)Nc2ccnc3[nH]ccc23)cc1 + COc1cccc2cc(-c3nc([C@H]4CC[C@H](C(=O)O)CC4)n4ncnc(N)c34)[nH]c12 [OSI-027] (partner 0.5 µM)
How it was run: (§1)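 A single step with final 0.05% Triton X-100, 1% formaldehyde and 1 ug/ml Hoechst fixed the cells and stained nuclei 5 days after treatment. Lung cancer cell lines in 1536-well plates had been treated by pin tool the day after seeding with one drug alone or a fixed anchor-drug dose plus five library-drug doses (not always all listed) in √10 steps, and nuclei were counted on 4× images. Relative viability is the ratio of nuclei in treated wells to nuclei in vehicle wells, taken as the median of duplicate plates.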

[2] = compound: C1CNCCC1C2=CC(=NN2)C3=CC=NC=C3 + O=C(CCCCCCC(=O)Nc1ccccc1)NO [Vorinostat] (partner 1 µM)
How it was run: as §1

[3] = compound: O[C@H]1CC[C@H](Nc2ncc3nc(Nc4c(F)cc(F)cc4F)n([C@H]4CCOC4)c3n2)CC1 [Tanzisertib] + Cc1nc(NC(=O)N2CCC[C@H]2C(N)=O)sc1-c1ccnc(C(C)(C)C(F)(F)F)c1 [Alpelisib] (partner 2 µM)
How it was run: as §1

[4] = compound: C1CNCCC1C2=CC(=NN2)C3=CC=NC=C3 + COc1cccc2cc(-c3nc([C@H]4CC[C@H](C(=O)O)CC4)n4ncnc(N)c34)[nH]c12 [OSI-027] (partner 0.5 µM)
How it was run: as §1

## NCI-H1915
[1]; first compound 0.04 µM
  relative viability: 0.562
[1]; first compound 0.1265 µM
  relative viability: 0.64
[1]; first compound 0.4 µM
  relative viability: 0.63
[1]; first compound 4 µM
  relative viability: 0.489
[2]; first compound 0.08 µM
  relative viability: 0.542
[2]; first compound 0.8 µM
  relative viability: 0.554
[2]; first compound 2.53 µM
  relative viability: 0.519
[2]; first compound 8 µM
  relative viability: 0.55
[3]; first compound 0.08 µM
  relative viability: 1.15
[3]; first compound 0.253 µM
  relative viability: 1.05
[3]; first compound 0.8 µM
  relative viability: 1.06
[3]; first compound 2.53 µM
  relative viability: 1.04
[3]; first compound 8 µM
  relative viability: 1.04
[4]; first compound 0.08 µM
  relative viability: 0.643
[4]; first compound 0.8 µM
  relative viability: 0.641
[4]; first compound 2.53 µM
  relative viability: 0.623
[4]; first compound 8 µM
  relative viability: 0.646
